Measurements as given in ChEMBL document CHEMBL5120818, “Discovery and Biosynthesis of Antimicrobial Phenethylamine Alkaloids from the Marine Flavobacterium Tenacibaculum discolor sv11” (2022).

Legend:
Format in all cases: functional
[1] = test system: Bacillus subtilis; experiment: Antibacterial activity against Bacillus subtilis DSM10 measured after 18 hrs by micro broth dilution assay
[2] = test system: Mycolicibacterium smegmatis; experiment: Antibacterial activity against Mycobacterium smegmatis ATCC607 measured after 48 hrs by BacTiter-glo assay
[3] = test system: Listeria monocytogenes; experiment: Antibacterial activity against Listeria monocytogenes DSM20600 measured after 48 hrs by BacTiter-glo assay
[4] = test system: Staphylococcus aureus; experiment: Antibacterial activity against Staphylococcus aureus ATCC25923 measured after 18 hrs by micro broth dilution assay
[5] = test system: Escherichia coli; experiment: Antibacterial activity against Escherichia coli ATCC25922 measured after 18 hrs by micro broth dilution assay
[6] = test system: Escherichia coli; experiment: Antibacterial activity against delta tolC deficient Escherichia coli ATCC25922 measured after 18 hrs by micro broth dilution assay
[7] = test system: Candida albicans; experiment: Antifungal activity against Candida albicans FH2173 measured after 48 hrs by BacTiter-glo assay
[8] = test system: Aspergillus flavus; experiment: Antifungal activity against Aspergillus flavus ATCC9170 measured after 24 hrs by BacTiter-glo assay
[9] = test system: Caenorhabditis elegans; experiment: Antihelminthic activity against Caenorhabditis elegans N2 assessed as reduction in worm motility measured after 2 days by binocular dissecting microscopy; conditions: N2, 48 h, time 2 day

Row | Structure (SMILES) | MIC [1] | MIC [2] | MIC [3] | MIC [4] | MIC [5] | MIC [6] | MIC [7] | MIC [8] | MIC [9]
1 | CCCC1=[N+](CCc2ccccc2)C(C)(CCC(=O)c2ccccc2N)C(NCCc2ccccc2)=C1 (centres undefined) | 4 µg/mL | 8 µg/mL | 4 µg/mL | 8 µg/mL | > 64 µg/mL | > 64 µg/mL | 16 µg/mL | 16 µg/mL | 64 µg/mL
2 | CCCc1n(CCc2ccccc2)c(C)c(C)[n+]1CCc1ccccc1 | 16 µg/mL | 8 µg/mL | > 64 µg/mL | 64 µg/mL | > 64 µg/mL | > 64 µg/mL | > 64 µg/mL | > 64 µg/mL | > 64 µg/mL
3 | CCCc1n(CCc2ccccc2)c(C)c(CC)[n+]1CCc1ccccc1 | 32 µg/mL | 8 µg/mL | > 64 µg/mL | 64 µg/mL | > 64 µg/mL | > 64 µg/mL | > 64 µg/mL | > 64 µg/mL | > 64 µg/mL
4 | CCCc1c(CC)cc(CC)c[n+]1CCc1ccccc1 | > 64 µg/mL | > 64 µg/mL | > 64 µg/mL | > 64 µg/mL | > 64 µg/mL | > 64 µg/mL | > 64 µg/mL | > 64 µg/mL | > 64 µg/mL
5 | CCCc1cc2n(CCc3ccccc3)cc(-c3ccccc3)cc-2[n+]1CCc1ccccc1 | 1 µg/mL | 0.5 µg/mL | 0.5 µg/mL | 0.5 µg/mL | 64 µg/mL | 8 µg/mL | 4 µg/mL | 1 µg/mL | 32 µg/mL
6 | CCCc1c(C)cn(CCc2ccccc2)c2cc(CCC)[n+](CCc3ccccc3)c1-2 | 4 µg/mL | 4 µg/mL | 2 µg/mL | 4 µg/mL | > 64 µg/mL | 64 µg/mL | 8 µg/mL | 8 µg/mL | > 64 µg/mL
